In ChEMBL document CHEMBL1132733, “7-Methoxybenzofuran-4-carboxamides as PDE 4 inhibitors: a potential treatment for asthma” (Bioorg Med Chem Lett, 2000):

Columns and labels:
Phosphodiesterase 4 [1] = target: Phosphodiesterase 4 (Homo sapiens, UniProt P27815+Q08499+Q07343+Q08493); test: Inhibition of Phosphodiesterase 4 from human U937 cells; format: cell-based; settings: u-937
Phosphodiesterase 4 [2] = target: T1, Phosphodiesterase 4 (Rattus norvegicus, UniProt P14270+P14646+P14644+P54748); test: Inhibition of rolipram binding in rat brain tissue; format: tissue-based
[3] = target: Phosphodiesterase 3 (Homo sapiens) (UniProt Q14432+Q13370); test: Inhibition of Phosphodiesterase 3 from human platelets; parameters: concentration or dose not given beside the values; settings: concentration not given here
Phosphodiesterase 4 [4] = target: T1, Phosphodiesterase 4; test: Inhibition of rolipram binding to rat brain tissue at 20 uM; format: tissue-based
[5] = Relative activity against human Phosphodiesterase type 4 (PDE4) and rat rolipram binding protein (RBA); parameters: reference not given here
Phosphodiesterase 4 [6] = target: T1, Phosphodiesterase 4; test: Inhibition of rolipram binding to rat brain tissue; format: tissue-based

Structure (SMILES) | IC50 (Phosphodiesterase 4 [1]) [µM] | IC50 (Phosphodiesterase 4 [2]) [µM] | inhibition [3] [%] | IC50 (Phosphodiesterase 4 [4]) [µM] | Ratio [5] | IC50 (Phosphodiesterase 4 [6]) [µM]
COc1ccc(C(=O)Nc2c(Cl)cncc2Cl)c2c(C)c(C(C)=O)oc12 | 0.32 | 0.16 | – | – | – | –
COc1ccc(C(=O)Nc2c(Cl)cncc2Cl)c2cc(C(=O)c3ccncc3)oc12 | 0.00241 | – | 7 | 0.0081 | 0.3 | –
COc1ccc(C(=O)Nc2c(Cl)cncc2Cl)c2cc(CC(C)(C)C)oc12 | 0.017 | – | 34 | – | – | –
COc1ccc(C(=O)Nc2ncccc2C)c2cc(C(C)=O)oc12 | 0.452 | 1.85 | – | – | 0.24 | –
COc1ccc(C(=O)Nc2ccncc2)c2cc(C(C)=O)oc12 | 0.12 | 0.25 | – | – | 0.48 | –
COc1ccc(C(=O)Nc2cccnc2Cl)c2cc(C(C)=O)oc12 | 0.875 | 0.199 | – | – | 4.4 | –
COc1ccc(C(=O)Nc2c(Cl)cc(C#N)cc2Cl)c2cc(C(C)=O)oc12 | 0.0851 | 0.228 | – | – | 0.37 | –
COc1ccc(C(=O)Nc2ccccc2Cl)c2cc(C(C)=O)oc12 | 0.054 | – | – | – | 0.21 | 0.248
COc1ccc(C(=O)N(C)c2c(Cl)cncc2Cl)c2cc(C(C)=O)oc12 | 0.33 | 0.15 | – | – | – | –
COc1ccc(C(=O)Nc2ccncc2Cl)c2cc(C(C)=O)oc12 | 0.0063 | 0.032 | – | – | 0.197 | –
COc1ccc(C(=O)Nc2ncncc2Cl)c2cc(C(C)=O)oc12 | 0.164 | 0.0596 | – | – | 2.75 | –

Continued, values first:

IC50 (Phosphodiesterase 4 [1]) [µM] | IC50 (Phosphodiesterase 4 [2]) [µM] | inhibition [3] [%] | IC50 (Phosphodiesterase 4 [4]) [µM] | Ratio [5] | IC50 (Phosphodiesterase 4 [6]) [µM] | Structure (SMILES)
0.0086 | – | 23 | – | – | – | COc1ccc(C(=O)Nc2c(Cl)cncc2Cl)c2cc(C(C)O)oc12 (stereo not given)
0.027 | – | 46 | – | – | – | CCc1cc2c(C(=O)Nc3c(Cl)cncc3Cl)ccc(OC)c2o1
– | – | 31 | – | – | – | COc1ccc(C(=O)Nc2c(Cl)cncc2Cl)c2cc(C#N)oc12
0.0016 | – | 32 | – | – | – | COc1ccc(C(=O)Nc2c(Cl)cncc2Cl)c2cc(C(C)=O)oc12
0.77 | – | 38 | – | – | – | COc1ccc(C(=O)Nc2c(Cl)cncc2Cl)c2cc(C(=O)O)oc12
